From patent US9415070B2, “Methods and compositions for localized delivery of agents to virally infected cells and tissues” (Massachusetts Institute of Technology, priority 2012, dated 2016)

B1: perforin: pore-forming protein, 67-kilodalton multidomain protein (protein, UniProt P14222 22-555, looked up)
Perforin-1: PCHTAARSECKRSHKFVPGAWLAGEGVDVTSLRRSGSFPVDTQRFLRPDGTCTLCENALQEGTLQRLPLALTNWRAQGSGCQRHVTRAKVSSTEAVARDAARSIRNDWKVGLDVTPKPTSNVHVSVAGSHSQAANFAAQKTHQDQYSFSTDTVECRFYSFHVVHTPPLHPDFKRALGDLPHHFNASTQPAYLRLISNYGTHFIRAVELGGRISALTALRTCELALEGLTDNEVEDCLTVEAQVNIGIHGSISAEAKACEEKKKKHKMTASFHQTYRERHSEVVGGHHTSINDLLFGIQAGPEQYSAWVNSLPGSPGLVDYTLEPLHVLLDSQDPRREALRRALSQYLTDRARWRDCSRPCPPGRQKSPRDPCQCVCHGSAVTTQDCCPRQRGLAQLEVTFIQAWGLWGDWFTATDAYVKLFFGGQELRTSTVWDNNNPIWSVRLDFGDVLLATGGPLRLQVWDQDSGRDDDLLGTCDQAPKSGSHEVRCNLNHGHLKFRYHARCLPHLGGGTCLDYVPQMLLGEPPGNRSGAVW

Key:
infected target cells = assay: in vitro eradication assay, HIV-specific T cells co-cultured with infected target cells; type: cell-based; conditions: in the presence of the latency reversing drug; FIG. 4
Source text: The in vitro cell eradication assay presented in this Example was directed to determining if T pharmacytes can induce expression of HIV expression in latently infected cells and kill those cells. HIV-specific T cells and Cytomegalovirus (CMV)-specific T cells were co-cultured with infected target cells (and mock-infected target cells) without the addition of any exogenous cytokines.

[1] = tested on: B lymphoblastoid cell line (BLCL); assay: lysis of BLCL by recombinant perforin (FSC/SSC flow cytometry); type: cell-based; conditions: FIG. 12A
Description: The next series of experiments were designed to test the effects of different concentrations of recombinant perforin on lysis of a B lymphoblastoid cell line (BLCL). […] The cell populations with FSC/SSC characteristics of viable BLCL have been gated. 1 nM perforin appeared to be sufficient for clear cell lysis. To investigate whether perforin release from T cells is sufficient to trigger release of payload from nanoparticles conjugated to T cells, ICMV nanoparticles encapsulating Alexa-647-labeled OVA were treated with 1 nM perforin for 16 hours, or maintained as a no-treatment control. As a positive control for complete lysis, NPs were treated with 2% Triton X-100. Fluorescence was quantified at 647 nm absorbance and 695 nm emission.

Molecule	response of HIV-specific T cells to infected target cells (infected target cells)	perforin concentration sufficient for clear cell lysis [1] [nM]
IL-15: cytokine used as latency reversing drug	specifically respond to these infected target cells only in the presence of latency reversing drugs	
B1		1
